One assay addresses T1, human SGLT1 (Homo sapiens, UniProt P13866).
T1 construct: expressed in transfected cells; host or cells: CHO-K1 or HEK293
T1 sequence (P13866 1-664): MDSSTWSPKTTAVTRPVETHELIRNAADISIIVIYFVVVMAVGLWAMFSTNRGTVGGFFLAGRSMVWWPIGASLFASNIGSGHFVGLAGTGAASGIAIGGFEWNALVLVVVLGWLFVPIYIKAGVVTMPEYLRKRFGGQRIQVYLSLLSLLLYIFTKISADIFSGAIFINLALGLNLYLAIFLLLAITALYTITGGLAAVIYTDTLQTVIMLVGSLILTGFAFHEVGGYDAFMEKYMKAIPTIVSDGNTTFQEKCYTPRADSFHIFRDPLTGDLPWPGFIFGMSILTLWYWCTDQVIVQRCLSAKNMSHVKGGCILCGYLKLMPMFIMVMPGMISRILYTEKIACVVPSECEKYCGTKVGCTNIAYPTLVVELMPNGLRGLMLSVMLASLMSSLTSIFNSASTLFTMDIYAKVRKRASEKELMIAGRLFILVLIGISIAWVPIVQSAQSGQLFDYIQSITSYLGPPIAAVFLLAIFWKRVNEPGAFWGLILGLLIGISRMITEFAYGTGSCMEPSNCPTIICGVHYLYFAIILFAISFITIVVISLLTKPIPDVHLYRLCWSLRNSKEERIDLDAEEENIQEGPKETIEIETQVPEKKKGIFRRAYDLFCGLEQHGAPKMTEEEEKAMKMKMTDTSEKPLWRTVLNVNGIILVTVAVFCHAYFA
In words: Analogous SGLT1 selectivity test: hSGLT1 expressed in CHO-K1 or HEK293 cells. To be noted: n = 1-4; 14C-AMG uptake, hSGLT1-transfected CHO-K1 or HEK293 cells. It counts as cell-based. The method, then:
(§1) The SGLT-2 assay is carried out as follows: CHO-hSGLT2 cells are cultivated in Ham's F12 Medium (BioWhittaker) with 10% fetal calf serum and 250 μg/mL zeocin (Invitrogen), and HEK293-hSGLT2 cells are cultivated in DMEM medium with 10% fetal calf serum and 250 μg/mL zeocin (Invitrogen). The cells are detached from the culture flasks by washing twice with PBS and subsequently treating with trypsin/EDTA. After the addition of cell culture medium the cells are centrifuged, resuspended in culture medium and counted in a Casy cell counter. Then 40,000 cells per well are seeded into a white, 96-well plate coated with poly-D-lysine and incubated overnight at 37° C., 5% CO2. The cells are washed twice with 250 μl of assay buffer (Hanks Balanced Salt Solution, 137 mM NaCl, 5.4 mM KCl, 2.8 mM CaCl2, 1.2 mM MgSO4 and 10 mM HEPES (pH 7.4), 50 μg/mL of gentamycin). 250 μl of assay buffer and 5 μl of test compound are then added to each well and the plate is incubated for a further 15 minutes in the incubator. 5 μl of 10% DMSO are used as the negative control. The reaction is started by adding 5 μl of 14 C-AMG (0.05 μCi) to each well. After 2 hours' incubation at 37° C., 5% CO2, the cells are washed again with 250 μl of PBS ([…]) and then lysed by the addition of 25 μl of 0.1 N NaOH (5 min. at 37° C.). 200 μl of MicroScint20 (Packard) are added to each well and incubation is continued for a further 20 min at 37° C. After this incubation the radioactivity of the 14 C-AMG absorbed is measured in a Topcount (Packard) using a 14 C scintillation program.
To determine the selectivity with respect to human SGLT1 an analogous test is set up in which the cDNA for hSGLTI (Genbank Ace. No. NM000343) instead of hSGLT2 cDNA is expressed in CHO-K1 or HEK293 cells.

For assay [1], the target named is T2, human sodium glucose cotransporter 2 (Homo sapiens, UniProt P31639).
T2 construct: expressed in transfected cells; host or cells: CHO-K1 (ATCC CCL-61) or HEK293 (ATCC CRL-1573), stably transfected with pZeoSV
T2 sequence (P31639 1-672): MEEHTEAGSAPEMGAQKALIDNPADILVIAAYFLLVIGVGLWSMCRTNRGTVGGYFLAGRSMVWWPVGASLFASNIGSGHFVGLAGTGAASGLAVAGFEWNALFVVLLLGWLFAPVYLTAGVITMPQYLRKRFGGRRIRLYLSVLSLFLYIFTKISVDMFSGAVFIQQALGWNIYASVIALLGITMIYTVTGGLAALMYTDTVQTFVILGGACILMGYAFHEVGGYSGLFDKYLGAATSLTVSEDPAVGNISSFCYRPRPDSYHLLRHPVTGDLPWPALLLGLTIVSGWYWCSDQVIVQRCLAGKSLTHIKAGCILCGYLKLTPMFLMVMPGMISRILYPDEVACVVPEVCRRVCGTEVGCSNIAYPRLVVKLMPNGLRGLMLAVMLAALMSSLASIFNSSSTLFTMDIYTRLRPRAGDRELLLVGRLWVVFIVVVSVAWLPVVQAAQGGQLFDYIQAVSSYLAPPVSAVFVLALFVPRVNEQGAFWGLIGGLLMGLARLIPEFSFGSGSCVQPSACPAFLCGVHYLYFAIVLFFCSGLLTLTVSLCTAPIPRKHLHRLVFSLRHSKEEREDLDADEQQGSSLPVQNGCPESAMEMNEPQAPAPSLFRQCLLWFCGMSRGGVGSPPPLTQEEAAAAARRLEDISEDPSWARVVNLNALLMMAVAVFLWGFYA
In words: SGLT-2 assay: sodium-dependent 14C-AMG uptake in CHO-hSGLT2 or HEK-hSGLT2 cells. Format: cell-based. To be noted: n = 1-4, hSGLT2-transfected CHO-K1 or HEK293 cells, read-out: SGLT2 IC50 nM (n = 1-4). How it is done:
These cell lines transport 14 C-labeled alpha-methyl-glucopyranoside (14 C-AMG, Amersham) into the interior of the cell in sodium-dependent manner.
as §1

Consider `CCOc1ccc(Cc2cc([C@@H]3OC(CO)(CO)[C@@H](O)[C@H](O)[C@H]3O)ccc2Cl)cc1` [Example 10, (3S,4R,5R,6S)-6-[4-Chloro-3-(4-ethoxy-benzyl)-phenyl]-2,2-bis-hydroxymethyl-tetrahydro-pyran-3,4,5-triol], for which the IC50 (usually the concentration that gives 50% inhibition) was over 30000 nM at human SGLT1 and 23 nM in assay [1].
In the same order, the values of `Oc1ccc(Cc2cc([C@@H]3OC4(CC4)[C@@H](O)[C@H](O)[C@H]3O)ccc2Cl)cc1` [Example 6, (5S,6R,7R,8S)-5-[4-Chloro-3-(4-hydroxy-benzyl)-phenyl]-4-oxa-spiro[2.5]octane-6,7,8-triol] are 460 nM and 2.6 nM.
For `CCOc1ccc(Cc2cc([C@@H]3OC4(CC4)[C@@H](O)[C@H](O)[C@H]3O)ccc2C)cc1` [Example 3, (5S,6R,7R,8S)-5-[3-(4-Ethoxy-benzyl)-4-methyl-phenyl]-4-oxa-spiro[2.5]octane-6,7,8-triol], the IC50 against human SGLT1 worked out at 153 nM; in assay [1] it was 0.9 nM.
Take `CCOc1ccc(Cc2cc([C@@H]3OC4(CC4)[C@@H](O)[C@H](O)[C@H]3O)ccc2Cl)cc1` [Example 2, (5S,6R,7R,8S)-5-[4-Chloro-3-(4-ethoxy-benzyl)-phenyl]-4-oxa-spiro[2.5]octane-6,7,8-triol]: the IC50 turned out to be 300 nM at human SGLT1 and 1 nM in assay [1].

(Values after US8394772B2, “Glycoside derivative and uses thereof” (Novartis AG, priority 2009, dated 2013).)
